From US7312193B2, “Calcium phosphopeptide complexes” (The University of Melbourne, priority 1997, dated 2007) come the findings set out here.

A short description of test [1]: Calcium phosphate binding by CPP and synthetic homologues and analogues. The conditions noted are these: for Vca: calcium bound per peptide; for VPi: inorganic phosphate bound per peptide; for Ca bound per molecule / Pi bound per molecule: maximal binding, 0.1% w/v peptide; for Ca/P: ratio of bound Ca to bound Pi. From the text:
Casein phosphopeptides containing the Ser(P) cluster, i.e. the core sequence motif Ser(P)-Ser(P)-Ser(P)-Glu-Glu-(SEQ ID NO: 5), have a marked ability to stabilize calcium phosphate in solution. Solutions containing 0.1% w/v αs1(59-79) (SEQ ID NO: 1) at various pH, calcium and phosphate concentrations, but constant ionic strengths were used to characterize the peptide's interaction with calcium phosphate.
The ion activity products for the various calcium phosphate phases [hydroxyapatite (HA); octacalcium phosphate (OCP); tricalcium phosphate (TCP); amorphous calcium phosphate (ACP); and dicalcium phosphate dihydrate (DCPD) were determined from the free calcium and phosphate concentrations at each pH using a computer program that calculates the ion activity coefficients through the use of the expanded Debye-Hückel equation and takes into account the ion pairs CaHPO4^o, CaH2PO4^+, CaPO4^−and CaOH^+ the dissociation of H3PO4 and H2O and the ionic strength. […] The peptide αs1(59-79) (SEQ ID NO: 1) binds to forming ACP clusters producing a metastable solution preventing ACP growth to the critical size required for nucleation and precipitation. The binding of αs1(59-79) (SEQ ID NO: 1) to ACP results in the formation of colloidal complexes with the unit formula [αs1(59-79) (SEQ ID NO: 1)(ACP)8]n where n is equal to or greater than one. It is likely that the predominant form is n=6 as αs1(59-79) (SEQ ID NO: 1) cross-linked with glutaraldehyde in the presence of ACP runs as a hexamer on polyacrylamide gel electrophoresis.
The relationship between CPP structure and interaction with amorphous calcium phosphate was investigated using a series of synthetic peptide homologues and analogues indicated in Table 1.

Test [2] can be described thus: CPP and synthetic peptide binding to HA at 37° C. To be noted: affinity constant. From the text: Similarly, we investigated the adsorption of the CPP and synthetic homologues and analogues onto HA (Table 2).

Square brackets hold non-standard residues; d marks the D form. Ends that are not written are not given here. pT = C[C@@H](OP(=O)(O)O)[C@H](N)C(=O)O; pS = N[C@@H](COP(=O)(O)O)C(=O)O

Take “AcGlu-Ser(P)-Ile-Ser(P)-Ser(P)-Ser(P)-Glu-GluNHMe [αs1(63-70)]”: in test [1], the Vca is reported as 12 mol/mol, the VPi worked out at 8 mol/mol, the “Ca bound per molecule” value is given as 12 per molecule and the “Pi bound per molecule” value is listed as 8 per molecule. In test [1], the Ca/P amounted to 1.5. The K in test [2] is on record as 10,370 ml/μmol.
Take AΣAE (A[pS]AE): in test [1], the Vca was 0 mol/mol and the VPi came out at 0 mol/mol.
As to AΣAΣAE (A[pS]A[pS]AE), in test [1], the Vca turned out to be 0 mol/mol and the VPi worked out at 0 mol/mol.
Turning to AΣAΣAΣAE (A[pS]A[pS]A[pS]AE), in test [1], the Vca worked out at 2 mol/mol, the VPi was 1 mol/mol and the Ca/P turned out to be 1.5.
Taken in the same sequence, the figures for AΣAΣAΣAΣAE (A[pS]A[pS]A[pS]A[pS]AE) were 6 mol/mol, 4 mol/mol and 1.5.
Turning to DΣΣEE (D[pS][pS]EE), in test [1], the Vca is reported as 2 mol/mol, the VPi is on record as 1 mol/mol and the Ca/P is listed as 2.0. In test [2], the K is 6,579 ml/μmol.
On to EAIAΣAEA (EAIA[pS]AEA), for which, in test [1], the Vca was determined as 0 mol/mol and the VPi came out at 0 mol/mol.
Consider EΣLΣΣΣEE [β(14-21)], for which, in test [1], the Vca was 12 mol/mol, the VPi was determined as 8 mol/mol and the Ca/P is 1.5.
As for EΣΣEE (E[pS][pS]EE), in test [1], the Vca was found to be 2 mol/mol, the VPi is on record as 1 mol/mol and the Ca/P turned out to be 2.0. For the same substance, the K in test [2] is recorded as 1,513 ml/μmol.
In the case of “Gln-Met-Glu-Ala-Glu (QMEAE) [αs1(59-63)]”, in test [1], the “calcium phosphate binding” value is listed as “did not bind calcium phosphate”, the Vca is reported as 0 mol/mol and the VPi turned out to be 0 mol/mol.
IAΣAEA (IA[pS]AEA): in test [1], the Vca was found to be 0 mol/mol and the VPi came out at 0 mol/mol.
IVPN[pS]VEQ [αs1(71-78)]: in test [1], the “calcium phosphate binding” value is given as “did not bind calcium phosphate”, the Vca is listed as 0 mol/mol and the VPi stood at 0 mol/mol.
Turning to “QMEAEΣIΣΣΣEEIVPNΣVEQK (QMEAE[pS]I[pS][pS][pS]EEIVPN[pS]VEQK; listed as Bos sp.) [αs1(59-79), tryptic casein phosphopeptide]”, in test [1], the Vca is recorded as 24 mol/mol, the VPi stood at 16 mol/mol, the “Ca bound per molecule” value came out at 24 per molecule and the “Pi bound per molecule” value is recorded as 16 per molecule. Moreover, the Ca/P in test [1] is given as 1.5. The K in test [2] was 415 mL/µmol.
Take “RELEELNVPGEIVEΣLΣΣΣEESITR (RELEELNVPGEIVE[pS]L[pS][pS][pS]EESITR; listed as Bos sp.) [β(1-25), tryptic casein phosphopeptide]”: in test [1], the Vca came out at 24 mol/mol, the VPi stood at 16 mol/mol and the Ca/P was found to be 1.5.
In the same order, the values of SΣΣEE (S[pS][pS]EE) are 2 mol/mol, 1 mol/mol and 2.0.
Regarding SθθEE (S[pT][pT]EE), in test [1], the Vca amounted to 2 mol/mol, the VPi was found to be 1 mol/mol and the Ca/P amounted to 2.0.
For TθθEE (T[pT][pT]EE), in test [2], the K is 1,013 ml/μmol.
[pS][pS][pS]EE [ΣΣΣEE]: in test [1], the Vca stood at 9 mol/mol, the VPi was found to be 6 mol/mol and the Ca/P is 1.5. For the same substance, the K in test [2] is recorded as 12,845 ml/μmol.
With θTθEE ([pT]T[pT]EE), in test [2], the K was determined as 837 mL/µmol.
θθTEE: the K in test [2] was 1,799 ml/μmol.
